Measured values published in PMC8958501, “Hypothesis-Driven, Structure-Based Design in Photopharmacology: The Case of eDHFR Inhibitors” (Journal of Medicinal Chemistry, 2022).
Like-named read-outs stand apart in the source and are kept apart here.

Key:
eDHFR = molecular target: T1, eDHFR (Escherichia coli, UniProt P0ABQ4); test: biochemical; settings: for light-induced change in eDHFR inhibition (dark IC50 vs irradiated IC50): irradiation with λ1 = 365 nm;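 for all read-outs here: purified E. coli DHFR colorimetric assay, enzyme with NADPH 3 min then inhibitor (10^-12 to 10^-5 M) 7 min, rate ΔAbs/s relative to DMSO control (1% v/v), triplicates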
T1 construct: made in house; host or cells: E. cloni EXPRESS BL21 (DE3) cells (Lucigen), pT7-SC1 plasmid
T1 sequence (P0ABQ4 whole entry): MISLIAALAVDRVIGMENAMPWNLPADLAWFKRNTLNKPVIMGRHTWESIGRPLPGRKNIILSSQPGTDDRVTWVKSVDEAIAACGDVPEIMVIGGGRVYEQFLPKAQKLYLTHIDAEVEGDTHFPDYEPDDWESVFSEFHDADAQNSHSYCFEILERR
Experimental: A 10 mM stock solution of the inhibitor in DMSO was divided into two parts. One half was thermally adapted with a heat gun for 1 min to obtain only the trans isomer.
The compounds were tested as eDHFR inhibitors via a colorimetric assay (Sigma-Aldrich, Catalog No. CS0340). Instead of the human DHFR protein provided in the kit, the in-house purified eDHFR was used. In a 3 mL cuvette, eDHFR (∼20 ng) was incubated with NADPH (60 μM, final) for 3 min, followed by an incubation with the inhibitor (from 10^–5 to 10^–12 M, final) for an additional 7 min. […] The concentration of DMSO in the final volume was 1% v/v for all enzymatic reactions. The measurements were performed in triplicates. For the control enzymatic reactions, eDHFR was incubated with NADPH and DMSO (1% v/v, final). […] The related control enzymatic reaction was also performed under continuous irradiation with λ1 = 390 nm light. Linear regression was performed in Microsoft Excel to calculate ΔAbs/s. % eDHFR activity was calculated as the ratio between ΔAbs/s for the sample and ΔAbs/s for the control reaction. GraphPadPrism 5.0 (GraphPad Software, Inc., version 5.00) was used for the determination of the IC50 of each inhibitor. Nonlinear regression was used for data fitting.

E. coli CS1562 = test: Antibacterial activity assay (MIC, bacterial growth curves); type: cell-based, Escherichia coli; settings: for MIC: Escherichia coli
Experimental: A culture of E. coli CS1562 was grown overnight in LB medium (10 g/L tryptone, 5 g/L yeast extract, 5 g/L NaCl) containing tetracycline (10 μg/mL) at 37 °C. The OD600 was measured, and the culture was diluted to 0.002 OD600 in LB medium. Series dilutions of the compounds were prepared in DMSO and diluted 25 times in sterile LB medium in a black sterile Eppendorf tube. […] Subsequently, the dark samples were added to the 96-well plate (100 μL, triplicates). Lastly, the LB medium containing E. coli CS1562 at 0.002 OD was added to every well (100 μL). The cells were grown overnight at 37 °C in a plate reader (Synergy H1, Biotek), and the OD600 was measured every 10 min with a 10 s shaking step before each measurement. The OD600 curves were background-corrected by subtracting the value at t = 0. […] Detailed data are reported in the SI.

[1] = Thermal cis-to-trans isomerization (thermal half-life of the metastable cis isomer); type: physicochemical; settings: thermal cis-to-trans isomerization, DMSO, 25 °C, 20 µM
Experimental: UV–vis absorption spectra were recorded on an Agilent 8453 UV–vis Spectrophotometer. Photochemical isomerization (photoswitching) was achieved by irradiation from the side in a fluorescence quartz cuvette (width = 1.0 cm) using a custom-built (Prizmatix/Mountain Photonics) multiwavelength fiber coupled LED system (FC6-LED-WL) including the following LEDs: 365A, 390B, 420Z, 445B, 535R, 630CA. A detailed description of the setup was published by us recently.[84] Alternatively, the samples were irradiated at 340 nm using the LOT Quantum design setup with 300 W Xe-Arc lamp, using the Thorlabs FB340-10 Bandpass filter. A Quantum Northwest TC1 temperature controller was used to maintain the temperature at 25 °C during photochemical studies. To analyze the fatigue resistance of the compounds, repeated irradiation cycles were performed using alternating wavelengths. The decrease and increase of the π–π* transition band was followed by UV–vis spectroscopy (Agilent 8453) at 25 °C while stirring. To determine the thermal lifetime for the metastable cis isomer, samples were irradiated with the custom-built setup until photostationary state (PSS) was reached. Then, the cuvettes were placed in a JASCO V750 spectrophotometer with a PTC 424S/15 temperature controller, and the recovery of the π–π* transition was followed while stirring at 25 °C (for solutions in DMSO and eDHFR assay buffer) or 37 °C (for solutions in 10 mM Tris-HCl buffer pH 7.0). The data were fitted using a first-order exponential function in OriginPro 2018. For the PSD determination by ^1H NMR spectroscopy, 0.5 mL of a 2 mM solution of the respective compound in DMSO-d6 was thermally equilibrated by briefly (∼10 s) heating the sample with a heat gun. Subsequently, the sample was irradiated in a glass NMR tube with a 365 nm hand-held lamp (Spectroline ENB-280C) or the LEDs of the custom-built setup. Detailed data are reported in the SI.

[2] = after irradiation, read-out: DHFR inhibition IC50 (nM) after irradiation
[3] = before irradiation, read-out: DHFR inhibition IC50 (nM) before irradiation
[4] = light or radiation study, after irradiation with λ1 = 365 nm, E. coli CS1562, 24 h, read-out: MIC Light
[5] = light or radiation study, after irradiation, E. coli CS1562, 24 h, read-out: MIC (µM) after irradiation
[6] = light or radiation study, before irradiation, E. coli CS1562, 24 h, read-out: MIC (µM) before irradiation
[7] = dark, E. coli CS1562, 24 h, read-out: MIC Dark
[8] = DHFR inhibition IC50 (nM) before irradiation, before irradiation
[9] = IC50 Dark, dark-adapted (thermally adapted, trans isomer)
[10] = irradiated to PSS with λ1 (340 nm for 3, 365 nm for 6-15), read-out: IC50 Light
[11] = irradiated with λ1 (1: continuous irradiation at 390 nm), read-out: IC50 Light
[12] = no considerable activity up to, dark-adapted and irradiated states

Structure (SMILES) | IC50 (eDHFR; [2]) [nM] | IC50 (eDHFR; [3]) [nM] | melting point | IC50 (eDHFR; [9]) [nM] | t1/2 DMSO (25 °C) [1] [h] | IC50 (eDHFR; [11]) [nM] | also measured
COc1cc(Cc2cnc(N)nc2N)cc(OC)c1OCc1cc(Cl)c(/N=N/c2c(Cl)cccc2Cl)c(Cl)c1 [TCAT, tetra-ortho-chloroazobenzene trimethoprim, reference compound] | 3.3 ± 2.1 | 3.8 ± 1.4 | – | – | – | – | –
Nc1ccnc(N)n1 [2,4-diaminopyrimidine, reference compound] | – | – | – | – | – | – | IC50 (eDHFR; fragment, no irradiation, read-out: IC50): 390000 ± 150000 nM
COC(C)(C#Cc1cnc(N)nc1N)c1ccc(/N=N/c2ccc(C(=O)O)c(Cl)c2)cc1 (stereo not drawn) [Compound 15, (E)-2-Chloro-4-{[4-(4-(2,4-diaminopyrimidin-5-yl)-2-methoxybut-3-yn-2-yl)phenyl]diazenyl}benzoic acid] | 27 ± 3.7 | – | 245 °C (dec.) | 52 ± 11 | > 24 | – | MIC (E. coli CS1562; [4]): 20 µM; MIC (E. coli CS1562; [5]): 20 µM; MIC (E. coli CS1562; [6]): 40 µM; MIC (E. coli CS1562; [7]): 40 µM; light-induced difference in antibacterial activity (dark MIC vs irradiated MIC) (E. coli CS1562; irradiation with λ1 = 365 nm, E. coli CS1562): 2 fold; IC50 (eDHFR; [8]): 52 ± 11 nM; IC50 (eDHFR; [10]): 27 ± 3.7 nM; light-induced change in eDHFR inhibition (dark IC50 vs irradiated IC50) (eDHFR): 2 fold
Nc1ncc(C#Cc2ccc(/N=N/c3ccccc3)cc2)c(N)n1 [Compound 4, (E)-5-{[4-(Phenyldiazenyl)phenyl]ethynyl}pyrimidine-2,4-diamine] | > 10000 | > 10000 | – | > 10000 | 8.6 | > 10000 | IC50 (eDHFR; [12]): > 10000 nM
COc1ccc(/N=N/c2ccc(COc3c(OC)cc(Cc4cnc(N)nc4N)cc3OC)cc2)cc1 [PMAT, para-methoxyazobenzene trimethoprim, reference compound] | – | – | – | 2 ± 0.61 | – | – | IC50 (eDHFR; [10]): 2.5 ± 0.61 nM
Nc1ncc(/N=N/c2ccccc2)c(N)n1 [Compound 1, (E)-5-(Phenyldiazenyl)pyrimidine-2,4-diamine] | > 10000 | > 10000 | > 250 °C | > 10000 | 1.3 | > 10000 | IC50 (eDHFR; [12]): > 10000 nM
COc1cc(Cc2cnc(N)nc2N)cc(OC)c1OCc1cc(F)c(/N=N/c2c(F)cccc2F)c(F)c1 [TFAT, tetra-ortho-fluoroazobenzene trimethoprim, reference compound] | 1.7 ± 0.32 | 1.9 ± 0.61 | – | – | – | – | –
COC(C)(C#Cc1cnc(N)nc1N)c1ccc(/N=N/c2ccc(C(=O)O)cc2)cc1 (stereo not drawn) [Compound 11, (E)-4-{[4-(4-(2,4-Diaminopyrimidin-5-yl)-2-methoxybut-3-yn-2-yl)phenyl]diazenyl}benzoic acid] | 70 ± 39 | – | 248 °C (dec.) | 58 ± 13 | > 24 | – | MIC (E. coli CS1562; [4]): 40 µM; MIC (E. coli CS1562; [5]): 40 µM; MIC (E. coli CS1562; [6]): 40 µM; MIC (E. coli CS1562; [7]): 40 µM; MIC / bacterial growth inhibition, same in both forms (E. coli CS1562; both before and after irradiation with λ1 = 365 nm, E. coli CS1562): 40 µM; IC50 (eDHFR; [8]): 58 ± 13 nM; IC50 (eDHFR; [10]): 70 ± 39 nM; light-induced change in eDHFR inhibition (dark IC50 vs irradiated IC50) (eDHFR): not significant
Nc1ncc(-c2ccc(/N=N/c3ccccc3)cc2)c(N)n1 [Compound 2, (E)-5-[4-(Phenyldiazenyl)phenyl]pyrimidine-2,4-diamine] | > 10000 | > 10000 | 199 to 201 °C | > 10000 | 27 | > 10000 | IC50 (eDHFR; [12]): > 10000 nM
COc1cc(Cc2cnc(N)nc2N)cc(OC)c1OC [TMP, trimethoprim, reference compound] | – | – | – | – | – | – | MIC (E. coli CS1562; CS1562, light or radiation study, 24 h): 1.3 µM; MIC (E. coli CS1562; CS1562, light or radiation study, 24 h, read-out: MIC (µM) before irradiation): 1.3 µM
Nc1ncc(C#Cc2cccc(/N=N/c3ccccc3)c2)c(N)n1 [Compound 5, (E)-5-{[3-(Phenyldiazenyl)phenyl]ethynyl}pyrimidine-2,4-diamine] | – | – | 207 to 209 °C | 5300 | > 24 | 2600 | –
